The target in one assay is T1, Adenosine receptor A1 (Homo sapiens, UniProt P30542).
T1 sequence (P30542 whole entry): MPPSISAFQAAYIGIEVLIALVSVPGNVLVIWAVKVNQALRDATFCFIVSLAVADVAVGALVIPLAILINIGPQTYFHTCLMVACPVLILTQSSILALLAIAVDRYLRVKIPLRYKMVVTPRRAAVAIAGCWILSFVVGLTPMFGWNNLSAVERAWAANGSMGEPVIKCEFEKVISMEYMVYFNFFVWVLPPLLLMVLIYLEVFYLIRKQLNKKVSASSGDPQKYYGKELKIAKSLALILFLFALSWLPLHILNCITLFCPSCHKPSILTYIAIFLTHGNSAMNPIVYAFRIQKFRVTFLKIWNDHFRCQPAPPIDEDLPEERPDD

The target of assay [1] is T2, Alpha-2C adrenergic receptor (Homo sapiens, UniProt P18825).
T2 sequence (P18825 whole entry): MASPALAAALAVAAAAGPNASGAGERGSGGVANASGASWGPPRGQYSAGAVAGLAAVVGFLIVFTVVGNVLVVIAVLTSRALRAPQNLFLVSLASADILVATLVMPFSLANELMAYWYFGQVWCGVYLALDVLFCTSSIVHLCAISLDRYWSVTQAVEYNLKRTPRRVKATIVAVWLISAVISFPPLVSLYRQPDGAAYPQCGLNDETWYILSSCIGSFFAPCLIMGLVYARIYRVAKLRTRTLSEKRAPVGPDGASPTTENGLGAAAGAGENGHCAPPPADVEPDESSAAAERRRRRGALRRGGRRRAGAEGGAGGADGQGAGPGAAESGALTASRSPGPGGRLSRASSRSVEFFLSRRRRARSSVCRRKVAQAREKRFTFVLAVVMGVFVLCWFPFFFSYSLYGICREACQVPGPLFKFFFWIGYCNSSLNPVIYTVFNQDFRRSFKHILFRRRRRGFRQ
Type of assay: functional.

In the next assay the target is Vasopressin V1a receptor (Homo sapiens, UniProt P37288).
In assay [2] the target is Neuronal acetylcholine receptor subunit alpha-4 (Homo sapiens, UniProt P43681).
The target of assay [3] is Gamma-aminobutyric acid receptor subunit alpha-1 (Rattus norvegicus, UniProt P62813). Type of assay: functional.
The target in assay [4] is T3, 5-hydroxytryptamine receptor 2C (Homo sapiens, UniProt P28335).
T3 sequence (P28335 whole entry): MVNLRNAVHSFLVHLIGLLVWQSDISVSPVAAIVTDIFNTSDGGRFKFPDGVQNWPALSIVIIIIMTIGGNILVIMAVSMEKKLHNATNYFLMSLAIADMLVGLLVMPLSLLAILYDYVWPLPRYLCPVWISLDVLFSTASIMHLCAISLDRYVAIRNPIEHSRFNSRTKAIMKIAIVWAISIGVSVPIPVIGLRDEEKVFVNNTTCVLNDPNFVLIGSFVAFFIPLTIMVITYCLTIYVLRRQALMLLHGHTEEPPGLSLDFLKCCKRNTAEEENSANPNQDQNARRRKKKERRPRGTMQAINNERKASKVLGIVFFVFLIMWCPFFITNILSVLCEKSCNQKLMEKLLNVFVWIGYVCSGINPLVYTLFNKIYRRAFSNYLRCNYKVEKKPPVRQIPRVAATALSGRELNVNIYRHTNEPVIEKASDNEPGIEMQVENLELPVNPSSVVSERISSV

The target in another assay is Histamine H2 receptor (Homo sapiens, UniProt P25021). The format is functional, cell-based.
In assay [5] the target is Delta-type opioid receptor (Homo sapiens, UniProt P41143).
Assay [6] addresses T4, Alpha-1A adrenergic receptor (Homo sapiens, UniProt P35348).
T4 sequence (P35348 whole entry): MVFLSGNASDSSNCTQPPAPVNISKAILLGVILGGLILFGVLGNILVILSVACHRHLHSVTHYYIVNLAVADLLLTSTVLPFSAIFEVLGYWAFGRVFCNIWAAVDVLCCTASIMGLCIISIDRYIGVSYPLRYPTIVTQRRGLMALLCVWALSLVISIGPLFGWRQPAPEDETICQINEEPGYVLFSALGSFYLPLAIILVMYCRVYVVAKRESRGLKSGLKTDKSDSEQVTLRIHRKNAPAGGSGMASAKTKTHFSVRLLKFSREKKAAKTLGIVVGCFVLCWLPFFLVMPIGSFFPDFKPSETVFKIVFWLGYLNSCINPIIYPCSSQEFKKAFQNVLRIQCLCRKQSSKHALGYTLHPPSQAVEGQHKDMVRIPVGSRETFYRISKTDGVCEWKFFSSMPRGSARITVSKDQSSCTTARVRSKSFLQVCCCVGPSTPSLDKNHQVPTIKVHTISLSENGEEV
Type of assay: functional, cell-based.

These results are taken from ChEMBL document CHEMBL5291721, “A preclinical secondary pharmacology resource illuminates target-adverse drug reaction associations of marketed drugs” (Nat Commun, 2023).
Further: assay procedure not described here.

Gamma-aminobutyric acid receptor subunit alpha-1, sequence (P62813 whole entry): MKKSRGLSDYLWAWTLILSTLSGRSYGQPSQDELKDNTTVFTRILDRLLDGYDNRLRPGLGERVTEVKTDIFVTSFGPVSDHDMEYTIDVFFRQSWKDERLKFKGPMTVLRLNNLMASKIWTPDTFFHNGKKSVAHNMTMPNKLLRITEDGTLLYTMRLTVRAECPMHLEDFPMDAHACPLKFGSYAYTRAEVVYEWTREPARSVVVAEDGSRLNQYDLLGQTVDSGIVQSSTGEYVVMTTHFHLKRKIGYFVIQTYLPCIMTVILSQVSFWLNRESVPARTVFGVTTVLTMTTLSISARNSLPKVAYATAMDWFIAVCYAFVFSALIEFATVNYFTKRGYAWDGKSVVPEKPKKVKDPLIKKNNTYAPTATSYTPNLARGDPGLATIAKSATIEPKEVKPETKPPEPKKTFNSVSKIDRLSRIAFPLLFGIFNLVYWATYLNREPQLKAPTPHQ
Histamine H2 receptor, sequence (P25021 whole entry): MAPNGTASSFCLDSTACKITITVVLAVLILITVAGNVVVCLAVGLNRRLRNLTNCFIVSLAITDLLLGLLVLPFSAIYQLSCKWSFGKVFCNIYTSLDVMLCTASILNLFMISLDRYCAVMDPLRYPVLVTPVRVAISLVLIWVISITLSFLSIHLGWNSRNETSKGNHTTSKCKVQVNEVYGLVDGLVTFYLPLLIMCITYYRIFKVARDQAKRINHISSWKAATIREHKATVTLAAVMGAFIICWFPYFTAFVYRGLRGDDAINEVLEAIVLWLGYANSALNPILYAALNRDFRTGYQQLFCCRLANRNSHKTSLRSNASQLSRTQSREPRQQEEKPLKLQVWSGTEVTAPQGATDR
Neuronal acetylcholine receptor subunit alpha-4, sequence (P43681 whole entry): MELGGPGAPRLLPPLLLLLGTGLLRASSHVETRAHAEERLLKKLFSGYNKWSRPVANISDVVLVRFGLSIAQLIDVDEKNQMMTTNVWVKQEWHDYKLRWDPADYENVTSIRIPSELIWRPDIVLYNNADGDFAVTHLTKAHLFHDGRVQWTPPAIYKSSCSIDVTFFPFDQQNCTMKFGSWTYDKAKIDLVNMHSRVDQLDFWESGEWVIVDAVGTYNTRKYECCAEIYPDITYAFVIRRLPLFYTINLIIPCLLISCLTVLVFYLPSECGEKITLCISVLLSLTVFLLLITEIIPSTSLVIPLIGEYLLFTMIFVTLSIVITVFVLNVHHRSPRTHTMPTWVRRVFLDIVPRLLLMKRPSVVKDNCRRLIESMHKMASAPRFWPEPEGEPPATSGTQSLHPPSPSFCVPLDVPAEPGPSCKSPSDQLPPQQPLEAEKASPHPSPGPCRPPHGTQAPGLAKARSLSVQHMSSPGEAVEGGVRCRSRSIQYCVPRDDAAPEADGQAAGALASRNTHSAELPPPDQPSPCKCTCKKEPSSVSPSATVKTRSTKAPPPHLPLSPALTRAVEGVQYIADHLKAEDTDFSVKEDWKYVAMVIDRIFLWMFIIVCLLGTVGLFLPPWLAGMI
Vasopressin V1a receptor, sequence (P37288 whole entry): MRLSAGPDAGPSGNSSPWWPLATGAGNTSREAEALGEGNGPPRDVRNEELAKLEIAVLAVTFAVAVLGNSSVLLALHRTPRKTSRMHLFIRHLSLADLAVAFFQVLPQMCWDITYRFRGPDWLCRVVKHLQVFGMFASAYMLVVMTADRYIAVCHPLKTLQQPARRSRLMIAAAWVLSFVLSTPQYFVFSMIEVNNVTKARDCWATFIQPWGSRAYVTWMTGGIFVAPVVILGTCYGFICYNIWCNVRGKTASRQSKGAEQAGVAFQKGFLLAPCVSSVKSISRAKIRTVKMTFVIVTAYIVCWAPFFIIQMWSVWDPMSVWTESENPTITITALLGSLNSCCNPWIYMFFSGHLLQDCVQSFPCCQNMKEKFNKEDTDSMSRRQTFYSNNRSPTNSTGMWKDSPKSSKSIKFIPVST
Delta-type opioid receptor, sequence (P41143 whole entry): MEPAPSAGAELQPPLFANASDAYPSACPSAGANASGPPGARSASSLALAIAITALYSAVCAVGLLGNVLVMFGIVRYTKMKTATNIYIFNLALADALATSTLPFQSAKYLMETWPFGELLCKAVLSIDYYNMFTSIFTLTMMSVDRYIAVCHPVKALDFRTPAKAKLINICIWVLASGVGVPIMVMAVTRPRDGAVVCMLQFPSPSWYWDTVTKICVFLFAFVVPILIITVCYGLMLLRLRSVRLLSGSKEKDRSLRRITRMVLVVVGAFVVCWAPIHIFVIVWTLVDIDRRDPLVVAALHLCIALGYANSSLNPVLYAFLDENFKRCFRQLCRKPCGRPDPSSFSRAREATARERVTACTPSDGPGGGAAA

Usually AC50 stands for the concentration at which the activity in the assay is half-maximal. Low readings indicate activity at low concentration, high ones activity only at high concentration. Take `C=C[C@@]1(C)CC(=O)[C@]2(O)[C@@]3(C)[C@@H](O)CCC(C)(C)[C@@H]3[C@H](OC(=O)CCN(C)C)[C@H](OC(C)=O)[C@@]2(C)O1`: the AC50 (on Adenosine receptor A1; in [1]; at Vasopressin V1a receptor; in assay [2]; in assay [3]; in assay [4]) was greater than 30 µM throughout.

Turning to `Nc1ccc(C(=O)O)c(O)c1` [AMINOSALICYLIC ACID], the AC50 (on Adenosine receptor A1; in assay [1]; in assay [2]; in [3]; at Histamine H2 receptor; in assay [4]) was greater than 30 µM throughout. The concentration at half-maximal activity (AC50) in assay [5] and in assay [6] was greater than 30 µM throughout.

With `COc1cc(OC)c(C(=O)CCCN2CCCC2)c(OC)c1` [BUFLOMEDIL], the AC50 on Adenosine receptor A1 was greater than 30 µM; in assay [1], 13 µM; in assay [2] it was greater than 30 µM; in assay [3], greater than 30 µM; at Histamine H2 receptor, greater than 30 µM; in [4], greater than 30 µM. Moreover, the AC50 in assay [5] and in assay [6] was greater than 30 µM each time.

Turning to `CS(=O)(=O)OCCCCOS(C)(=O)=O` [BUSULFAN], the half-maximal activity concentration (AC50) (at Adenosine receptor A1; in [1]; in assay [2]; in assay [3]; on Histamine H2 receptor; in assay [4]) was greater than 30 µM each time. The AC50 in [5] and in assay [6] was greater than 30 µM each time.

On to `C=CC1=C(C(=O)O)N2C(=O)[C@@H](NC(=O)/C(=N\OCC(=O)O)c3csc(N)n3)[C@H]2SC1` [CEFIXIME], for which the half-maximal activity concentration (AC50) (on Adenosine receptor A1; in [1]; on Vasopressin V1a receptor; in [2]; on Histamine H2 receptor; in [6]) was greater than 30 µM in each case.

For the compound `CO[C@@]1(NC(=O)Cc2cccs2)C(=O)N2C(C(=O)O)=C(COC(N)=O)CS[C@@H]21` [CEFOXITIN], the concentration at half-maximal activity (AC50) (on Adenosine receptor A1; in assay [1]; on Vasopressin V1a receptor; in [2]; in assay [3]; on Histamine H2 receptor) was greater than 30 µM in each case. For the same compound, the concentration at half-maximal activity (AC50) in [4] and in [5] was greater than 30 µM in each case.

Regarding `COCCOC(=O)C1=C(C)NC(C)=C(C(=O)OC/C=C/c2ccccc2)C1c1cccc([N+](=O)[O-])c1` (centres undefined) [CILNIDIPINE], the half-maximal activity concentration (AC50) (on Adenosine receptor A1; in [1]; on Vasopressin V1a receptor; in assay [2]; in assay [3]; at Histamine H2 receptor) was greater than 30 µM each time. Also, the AC50 in assay [4] and in [5] was greater than 30 µM throughout.

With `C[C@@H]1C[C@H]2[C@@H]3C[C@H](F)C4=CC(=O)C=C[C@]4(C)[C@@]3(F)[C@@H](O)C[C@]2(C)[C@H]1C(=O)CO` [DIFLUCORTOLONE], the AC50 in [1] and in assay [5] was greater than 30 µM throughout.

For the compound `CC1(C)C(/C=C/C=C/C=C/C=C2\N(CCCCS(=O)(=O)O)c3ccc4ccccc4c3C2(C)C)=[N+](CCCCS(=O)(=O)[O-])c2ccc3ccccc3c21` [INDOCYANINE GREEN ACID FORM], the AC50 on Adenosine receptor A1 was 22 µM; in [1] it was 9.7 µM; on Vasopressin V1a receptor it was 7.7 µM; in assay [2], greater than 30 µM; in assay [3] it was 18 µM; on Histamine H2 receptor, 24 µM. This compound came in with an AC50 in [5] of 9.7 µM.

As for `Nc1nc2c(c(=O)[nH]1)N(C=O)C(CNc1ccc(C(=O)N[C@@H](CCC(=O)O)C(=O)O)cc1)CN2` (some centres undefined) [LEUCOVORIN], the concentration at half-maximal activity (AC50) (at Adenosine receptor A1; in assay [1]; in assay [2]; in assay [3]; at Histamine H2 receptor; in assay [4]) was greater than 30 µM in each case. For the same compound, the concentration at half-maximal activity (AC50) in [5] and in assay [6] was greater than 30 µM throughout.

On to `CCOC(=O)Nc1ccc2c(c1)N(C(=O)CCN1CCOCC1)c1ccccc1S2` [MORICIZINE], for which the half-maximal activity concentration (AC50) (on Adenosine receptor A1; in [1]; at Vasopressin V1a receptor; in assay [2]; in assay [3]; on Histamine H2 receptor) was greater than 30 µM each time. For the same compound, the concentration at half-maximal activity (AC50) in [4] and in assay [5] was greater than 30 µM each time.

Consider `CCn1cc(C(=O)O)c(=O)c2cc(F)c(N3CCN(C)CC3)cc21` [PEFLOXACIN], for which the AC50 (on Adenosine receptor A1; in assay [1]; in assay [3]; at Histamine H2 receptor; in [4]; in assay [5]) was greater than 30 µM throughout.

Turning to `CC[N+]1(C)CCCC(OC(=O)C(O)(c2ccccc2)c2ccccc2)C1` (centres undefined) [PIPENZOLATE], the half-maximal activity concentration (AC50) (at Adenosine receptor A1; in assay [1]; at Vasopressin V1a receptor; in [2]; in [3]; at Histamine H2 receptor) was greater than 30 µM throughout. In addition, the AC50 in assay [4] and in [5] was greater than 30 µM in each case.

For the compound `C[n+]1ccccc1/C=N/O` [PRALIDOXIME], the concentration at half-maximal activity (AC50) (in [1]; in assay [3]; on Histamine H2 receptor; in [4]; in assay [5]; in assay [6]) was greater than 30 µM in each case.

For `CCCNC(C)C(=O)Nc1ccccc1C` (centres undefined) [PRILOCAINE], the AC50 (on Adenosine receptor A1; in [1]; in assay [2]; in [3]; at Histamine H2 receptor; in [4]) was greater than 30 µM each time. Moreover, the AC50 in [5] and in assay [6] was greater than 30 µM in each case.

In the case of `CC(C)(C)NC[C@H](O)COc1nsnc1N1CCOCC1` [TIMOLOL], the AC50 (at Adenosine receptor A1; in assay [1]; in assay [2]; in assay [3]; on Histamine H2 receptor; in assay [4]) was greater than 30 µM in each case. Besides, the AC50 in assay [5] and in assay [6] was greater than 30 µM each time.

For the compound `COc1cc2nccc(Oc3ccc(NC(=O)Nc4cc(C)on4)c(Cl)c3)c2cc1OC` [TIVOZANIB], the concentration at half-maximal activity (AC50) in assay [1] is greater than 30 µM; in [2] it was greater than 3 µM; in [6], 19 µM.

For `CN1[C@@H]2CC[C@H]1C[C@@H](OC(=O)c1c[nH]c3ccccc13)C2` [TROPISETRON], the AC50 is greater than 30 µM on Adenosine receptor A1; 27 µM in [1]; 5.2 µM in [2]; 0.5 µM in assay [3]; greater than 30 µM at Histamine H2 receptor; greater than 30 µM in [4]. This compound also yielded a concentration at half-maximal activity (AC50) in [6] greater than 30 µM.

In the case of COLISTIN, the concentration at half-maximal activity (AC50) (in assay [1]; in assay [3]; at Histamine H2 receptor; in assay [4]; in assay [5]; in [6]) was greater than 30 µM throughout.
